Data as given in US8906952B2, “Indole derivative or pharmaceutically acceptable salt thereof, preparation method thereof, and pharmaceutical composition for preventing or treating metabolic diseases containing same as active ingredient” (Korea Research Institute of Bioscience and Biotechnology, priority 2011, dated 2014).

How the values were obtained:
[1] = target: T1, human DGAT1 (Homo sapiens, UniProt O75907); test: DGAT enzyme inhibition test, hDGAT1 enzyme from sf9 insect cells; assay type: biochemical; settings: enzyme from sf9 cells overexpressing hDGAT1; read-out: hDGAT-1 (sf9) IC50
T1 construct: made in house; host or cells: sf9 insect cells
T1 sequence (O75907 1-488): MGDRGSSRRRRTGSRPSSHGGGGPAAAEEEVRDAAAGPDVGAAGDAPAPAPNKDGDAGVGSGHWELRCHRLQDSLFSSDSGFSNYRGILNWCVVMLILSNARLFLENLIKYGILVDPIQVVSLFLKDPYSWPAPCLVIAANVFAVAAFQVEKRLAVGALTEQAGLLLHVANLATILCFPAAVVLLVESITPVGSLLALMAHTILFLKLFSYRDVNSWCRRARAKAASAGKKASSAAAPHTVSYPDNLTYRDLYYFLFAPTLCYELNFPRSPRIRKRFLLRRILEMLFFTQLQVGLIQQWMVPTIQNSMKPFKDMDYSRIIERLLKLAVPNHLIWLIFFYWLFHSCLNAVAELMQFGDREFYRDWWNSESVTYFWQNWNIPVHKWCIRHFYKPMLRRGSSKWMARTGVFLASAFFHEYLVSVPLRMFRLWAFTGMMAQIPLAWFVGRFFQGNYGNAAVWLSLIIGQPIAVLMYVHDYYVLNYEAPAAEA
Text: (§1) To investigate inhibitory effect of the compounds of Examples 1-33 against DGAT enzyme activity, DGAT enzyme inhibition and DGAT2 selectivity were investigated using zymogen including:
1) hDGAT1 and hDGAT2 enzymes, derived from insect cell overexpressing human DGAT1 and DGAT2 (‘sf9’), respectively,
(§2) To be specific, for the purpose of measuring human-derived DGAT enzyme inhibitory activity, using the zymogen, including enzymes derived from insect cell overexpressing human DGAT1 and DGAT2 (‘sf9’), microsomal protein isolated from human duodenal adenocarcinoma (‘Hutu 80’), and microsomal protein isolated from rat, and according to Coleman et al., (Methods Enzymol., 98-103, 1992), and substrate including 1,2-diacylglycerol(Sigma, D0138) and [^14C]palmitoyl-CoA (Amersham, CFA583), the amount of radiation of [^14C]triacylglycerol produced after enzymatic reaction was measured.
(§3) To be more specific, to the reaction solution containing 175 mM Tris-HCl (pH 8.0), 20 μl bovine serum albumin (10 mg/ml), 100 mM magnesium chloride, 30 μM [^14C]palmitoyl CoA (0.02 μCi, Amersham) and 200 μM 1,2-dioleoylglycerol, reagent dissolved in dimethylsulfoxide (10.0 μl) was added. After introducing 100 to 200 μg isolated microsomal protein and allowing the same to react at 25° C. for 10 min, the reaction was stopped by adding 1.5 ml stop solution (2-propanol:heptane:water=80:20:2, v:v:v). To isolate the product of the reaction (i.e., [^14C]triacylglycerol), 1 ml heptane and 0.5 ml distilled water were added and then decocted. After taking 1 ml supernatant, 2 ml alkaline ethanol solution (ethanol:0.5 N sodium hydroxide:water=50:10:40, v:v:v) were added and then decocted. After taking 0.65 ml supernatant from the decoction, the amount of radiation was measured with liquid scintillation counter (LSC). The DGAT inhibitory activity was calculated with Mathematical Expression 1 below:
(§4) T denotes cpm of experimental group in which the enzymatic reaction solution was treated with the sample,
(§5) C denotes cpm of control group in which the enzymatic reaction solution was not treated with the sample, and
(§6) B denotes cpm of control group treated with the sample without zymogen.

[2] = target: T2, hDGAT-1 (HuTu 80) (Homo sapiens, UniProt O75907); test: DGAT enzyme inhibition test, microsomal protein from human duodenal adenocarcinoma (Hutu 80); assay type: biochemical; settings: microsomal protein from HuTu 80
T2 construct: microsomal protein isolated from human duodenal adenocarcinoma (‘Hutu 80’); endogenous in cells; host or cells: HuTu 80 human duodenal adenocarcinoma cells (microsomes)
T2 sequence (O75907 1-488): T1 sequence (O75907 1-488)
Text: as §1
2) DGAT enzyme derived from human duodenal adenocarcinoma (‘Hutu 80’), and
as §2, §3, §4, §5, §6

[3] = test system: HepG2 cells; test: DGAT inhibitory effect in HepG2 cells (triglyceride production from [14C]glycerol); assay type: cell-based; settings: Homo sapiens; for activity at 10 µM: HepG2, 6 h, DMSO control = 100, read-out: Triglyceride production rate (%)/HepG2 cells at 10 μM; for inhibition at 10 µM: HepG2, 10 μM, read-out: biosynthesis inhibition rate of triglyceride
Experimental: To investigate inhibition effect on intracellular DGAT enzyme activity of the compounds obtained in Examples 1-51, intracellular DGAT enzyme activity was measured using human-derived liver HepG2 cells.
HepG2 cells were purchased from ATCC, and cultured in 37° C., 5% CO2 incubator including minimum essential medium (2 mM L-glutamine, earle's BSS adjusted to contain 1.5 g/L sodium bicarbonate, 0.1 mM nonessential amino acids, and 1 mM sodium pyruvate) added with 10% fetal bovine serum (FBS) and 1% antibiotic (100 U/ml penicillin and 100 µg/ml streptomycin).
The intracellular DGAT enzyme activity was measured based on an amount of triglycerides produced in the cultured HepG2 cells, by adding 10 μM enzyme inhibitor compounds obtained in Examples 1-51, respectively, and then determining the effect of the enzyme inhibitors according to reduction rate of the triglyceride production.
Specifically, cells were seeded 1×10^6 cell/ml per well of the 24 well culture plate, and 24 hours after incubation, medium was exchanged with FBS-free DMEM medium, and sample of 0.2 mCi [^14C]glycerol (Amersham) was added as substrate, and the reaction was allowed to occur for 6 hr. The induced production of triglyceride was catalyzed by the DGAT enzyme, and DGAT enzyme activity was determined based on the amount of production of triglyceride which was measured based on the amount of radiation. The sample was dissolved in dimethylsulfoxide (DMSO) to be used, and the control group in the triglyceride production reaction was reacted with dimethylsulfoxide only (i.e., without sample), and the amount of the triglyceride production rate was set to 100.
After the reaction completed, the substrate [^14C]glycerol which was either not absorbed into cells or not used for the reaction, were removed with phosphate-buffer-saline (PBS), and 0.5 ml extraction solvent (hexane:isopropanol=3:2, v:v) was added to extract full fat containing triglycerides. With 0.5 ml extraction solvent, extract was obtained two times for 30 min each, and 1 ml of the extract was concentrated with nitrogen gas. After removing the extraction solvent, the total fat was dissolved in organic solvent (chloroform:methanol=2:1) and spotted with thin-layer chromatography (TLC:silica gel 60F254, thickness: 0.5 mm, Merck) on the developing solvent (hexane:diethyl ether:acetic acid=80:20:1, v: v: v). Triglycerides (Rf value: 0.4) were isolated on TLC, and after exposing the TLC plate to the film with photosensitivity to radiation energy (imaging plate' Fujifilm, BMS-MS 2040) for 3 hr, the amount of [^14C] radiation of triglyceride was measured by imaging analysis (FLA 7000). The remaining cells after the extraction were dissolved in 0.3 ml 0.1 N sodium hydroxide for use in the measurement of protein concentration of the cells used for the reaction.
The experimental errors among the respective experimental groups were compensated with the experimental value which was obtained by dividing the measured radiation of triglyceride by protein concentration, and the production rate of triglyceride according to the respective compounds of Examples 1-51 are tabulated below.

**Q.** What does the source list for `CC(C)N(NC(=O)c1ccc(OCCN2CCOCC2)cc1)C(=O)/C=C/c1cn(C(=O)OC(C)(C)C)c2ccccc12` [Example 9, (E)-tert-butyl 3-(3-(1-isopropyl-2-(4-(2-morpholinoethoxy)benzoyl)hydrazinyl)-3-oxoprop-1-enyl)-1H-indole-1-carboxylate]?
**A.** IC50 [1]: > 100 µM; IC50 [2]: 19.6 µM; activity at 10 µM [3]: 83.8%

**Q.** Which IC50 [1] does the source give for `CC(C)(C)OC(=O)n1cc(/C=C/C(=O)NNC(=O)c2ccccc2)c2ccccc21` [Example 16, (E)-tert-butyl 3-(3-(2-benzoylhydrazinyl)-3-oxoprop-1-enyl)-1H-indole-1-carboxylate] here?
**A.** > 100 µM

**Q.** And the IC50 [2]?
**A.** 10.7 µM

**Q.** And the activity at 10 µM [3]?
**A.** 61.7%

**Q.** And the inhibition at 10 µM [3]?
**A.** 30 to 40%

**Q.** What does the source list for `CC(C)N(NC(=O)c1cccnc1)C(=O)/C=C/c1cn(C(=O)OC(C)(C)C)c2ccccc12` [Example 3, (E)-tert-butyl 3-(3-(1-isopropyl-2-nicotinoylhydrazinyl)-3-oxoprop-1-enyl)-1H-indole-1-carboxylate]?
**A.** IC50 [1]: > 100 µM; IC50 [2]: 6.5 µM; activity at 10 µM [3]: 66.8%; inhibition at 10 µM [3]: 30 to 40%

**Q.** What does the source list for `CC(=O)n1cc(/C=C/C(=O)N(NC(=O)c2ccccc2)C(C)C)c2ccccc21` [Example 30, (E)-N′-(3-(1-acetyl-1H-indol-3-yl)acryloyl)-N′-isopropylbenzohydrazide]?
**A.** IC50 [1]: 65.3 µM; IC50 [2]: 27 µM; activity at 10 µM [3]: 89%

**Q.** Which results are given for `CC(C)N(NC(=O)c1ccccn1)C(=O)/C=C/c1cn(C(=O)OC(C)(C)C)c2ccccc12` [Example 2, (E)-tert-butyl 3-(3-(1-isopropyl-2-picolinoylhydrazinyl)-3-oxoprop-1-enyl)-1H-indole-1-carboxylate]?
**A.** IC50 [1]: > 100 µM; IC50 [2]: 11.2 µM; activity at 10 µM [3]: 64.2%; inhibition at 10 µM [3]: 30 to 40%

**Q.** Which results are given for `CC(C)N(NC(=O)c1ccccc1)C(=O)CCc1cn(C(=O)OC(C)(C)C)c2ccccc12` [Example 24, tert-butyl 3-(3-(2-benzoyl-1-isopropylhydrazinyl)-3-oxopropyl)-1H-indole-1-carboxylate]?
**A.** IC50 [1]: > 100 µM; IC50 [2]: 9.2 µM; activity at 10 µM [3]: 60.7%; inhibition at 10 µM [3]: 30 to 40%

**Q.** For `CC(C)N(NC(=O)c1ccccc1)C(=O)/C=C/c1cn(C2CC2)c2ccccc12` [Example 29, (E)-N′-(3-(1-cyclopropyl-1H-indol-3-yl)acryloyl)-N′-isopropylbenzohydrazide], which IC50 [1] is on record?
**A.** 24.6 µM

**Q.** And the IC50 [2]?
**A.** 4.6 µM

**Q.** What about the activity at 10 µM [3] of the same molecule?
**A.** 59.6%

**Q.** What about the inhibition at 10 µM [3] of the same molecule?
**A.** 30 to 40%

**Q.** Which IC50 [1] does the source give for `COc1cccc(C(=O)NN(C(=O)/C=C/c2cn(C(=O)OC(C)(C)C)c3ccccc23)C(C)C)c1` [Example 6, (E)-tert-butyl 3-(3-(1-isopropyl-2-(3-methoxybenzoyl)hydrazinyl)-3-oxoprop-1-enyl)-1H-indole-1-carboxylate] here?
**A.** > 100 µM

**Q.** And the IC50 [2]?
**A.** 5.2 µM

**Q.** What about the activity at 10 µM [3] of the same molecule?
**A.** 74.8%

**Q.** And the inhibition at 10 µM [3]?
**A.** 20 to 30%

**Q.** With `CC(C)N(NC(=O)c1ccccc1)C(=O)/C=C/c1cn(C(=O)CC(C)(C)C)c2ccccc12` [Example 33, (E)-N′-(3-(1-(3,3-dimethylbutanoyl)-1H-indol-3-yl)acryloyl)-N′-isopropylbenzohydrazide] as the molecule, how does the IC50 [1] read?
**A.** 5.3 µM

**Q.** And the IC50 [2]?
**A.** 2.1 µM

**Q.** And the activity at 10 µM [3]?
**A.** 78.2%

**Q.** What about the inhibition at 10 µM [3] of the same molecule?
**A.** 20 to 30%

**Q.** Which IC50 [1] does the source give for `CC(C)N(NC(=O)c1ccccc1)C(=O)/C=C/c1cn(C(=O)OC(C)(C)C)c2ccccc12` [Example 1, (E)-tert-butyl 3-(3-(2-benzoyl-1-isopropylhydrazinyl)-3-oxoprop-1-enyl)-1H-indole-1-carboxylate] here?
**A.** 9.6 µM

**Q.** And the IC50 [2]?
**A.** 1.4 µM

**Q.** What about the activity at 10 µM [3] of the same molecule?
**A.** 60.1%

**Q.** And the inhibition at 10 µM [3]?
**A.** 30 to 40%

**Q.** What does the source list for `COc1ccc(C(=O)NN(C(=O)/C=C/c2cn(C(=O)OC(C)(C)C)c3ccccc23)C(C)C)cc1` [Example 7, (E)-tert-butyl 3-(3-(1-isopropyl-2-(4-methoxybenzoyl)hydrazinyl)-3-oxoprop-1-enyl)-1H-indole-1-carboxylate]?
**A.** IC50 [1]: > 100 µM; IC50 [2]: 11.6 µM; activity at 10 µM [3]: 85.8%

**Q.** Which IC50 [1] does the source give for `CC(C)N(NC(=O)c1ccc(O)cc1)C(=O)/C=C/c1cn(C(=O)OC(C)(C)C)c2ccccc12` [Example 5, (E)-tert-butyl 3-(3-(2-(4-hydroxybenzoyl)-1-isopropylhydrazinyl)-3-oxoprop-1-enyl)-1H-indole-1-carboxylate] here?
**A.** 22.5 µM

**Q.** What about the IC50 [2] of the same molecule?
**A.** 6.6 µM

**Q.** What about the activity at 10 µM [3] of the same molecule?
**A.** 62.2%

**Q.** And the inhibition at 10 µM [3]?
**A.** 30 to 40%

**Q.** Which results are given for `COC(=O)COc1cccc(C(=O)NN(C(=O)/C=C/c2cn(C(=O)OC(C)(C)C)c3ccccc23)C(C)C)c1` [Example 18, (E)-tert-butyl 3-(3-(1-isopropyl-2-(3-(2-methoxy-2-oxoethoxy)benzoyl)hydrazinyl)-3-oxoprop-1-enyl)-1H-indole-1-carboxylate]?
**A.** IC50 [1]: > 100 µM; IC50 [2]: 3.2 µM; activity at 10 µM [3]: 102%

**Q.** Which results are given for `CC(C)N(NC(=O)c1ccccc1)C(=O)/C=C/c1c[nH]c2ccccc12` [Example 22, (E)-N′-(3-(1H-indol-3-yl)acryloyl)-N′-isopropylbenzohydrazide]?
**A.** IC50 [1]: > 100 µM; IC50 [2]: 44.6 µM; activity at 10 µM [3]: 116%

**Q.** How did the IC50 [1] turn out when `CC(C)N(NC(=O)c1ccccc1)C(=O)CCc1cn(Cc2ccccc2)c2ccccc12` [Example 21, N′-(3-(1-benzyl-1H-indol-3-yl)propanoyl)-N′-isopropylbenzohydrazide] was run?
**A.** > 100 µM

**Q.** And the IC50 [2]?
**A.** 29.6 µM

**Q.** And the activity at 10 µM [3]?
**A.** 103%

**Q.** What does the source list for `CC(C)N(NC(=O)c1cccc(OCCN2CCOCC2)c1)C(=O)/C=C/c1cn(C(=O)OC(C)(C)C)c2ccccc12` [Example 8, (E)-tert-butyl 3-(3-(1-isopropyl-2-(3-(2-morpholinoethoxy)benzoyl)hydrazinyl)-3-oxoprop-1-enyl)-1H-indole-1-carboxylate]?
**A.** IC50 [1]: > 100 µM; IC50 [2]: 9.3 µM; activity at 10 µM [3]: 85.2%
